In patent US12077503B2, “Substituted cyclic amides and their use as herbicides” (FMC CORPORATION, priority 2015, dated 2024):

Assays:
Format in all cases: in vivo
[1] = tested on: barnyardgrass (Echinochloa crus-galli); assay: Test G Pre-Emergence Protocol; settings: Echinochloa crus-galli, pre-emergence, 312 h, evaluated after 13 days; for pest or weed control at 15.625 g/ha: 15.625 g ai/ha; for pest or weed control at 15.625 g/ha / pest or weed control at 250 g/ha: read-out: Barnyardgrass damage rating (100=total damage to plant; 0=no damage to plant); for pest or weed control at 62.5 g/ha: 62.5 g ai/ha, 100=total damage to plant, 0=no damage to plant, read-out: Barnyardgrass damage rating; for pest or weed control at 250 g/ha: 250 g ai/ha
Summary of the method: (§1)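 Visual injury (0–100) at day 13 after a single pre-emergence spray. Rates: 15.625, 62.5, 250 g/ha in acetone–water 50:50 with 0.5% Tween 20. Growth conditions: 24/16° C, 14 h light, 65% humidity.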

corn (Zea mays) [2] = assay: Test G Pre-Emergence Protocol; settings: Zea mays, pre-emergence, 312 h, evaluated after 13 days; for plant injury at 15.625 g/ha: 15.625 g ai/ha; for plant injury at 15.625 g/ha / plant injury at 250 g/ha: read-out: Corn damage rating (100=total damage to plant; 0=no damage to plant); for plant injury at 62.5 g/ha: 62.5 g ai/ha, 100=total damage to plant, 0=no damage to plant, read-out: Corn damage rating; for plant injury at 250 g/ha: 250 g ai/ha
Summary of the method: as §1

[3] = tested on: giant foxtail (Setaria faberi); assay: Test G Pre-Emergence Protocol; settings: Setaria faberi, pre-emergence, 312 h, evaluated after 13 days; for pest or weed control at 15.625 g/ha: 15.625 g ai/ha; for pest or weed control at 15.625 g/ha / pest or weed control at 250 g/ha: read-out: Foxtail, Giant damage rating (100=total damage to plant; 0=no damage to plant); for pest or weed control at 62.5 g/ha: 62.5 g ai/ha, 100=total damage to plant, 0=no damage to plant, read-out: Foxtail, Giant damage rating; for pest or weed control at 250 g/ha: 250 g ai/ha
Summary of the method: as §1

[4] = tested on: ivy-leaved morning glory (Ipomoea hederacea); assay: Test G Pre-Emergence Protocol; settings: Ipomoea, pre-emergence, 312 h, evaluated after 13 days; for pest or weed control at 15.625 g/ha: 15.625 g ai/ha; for pest or weed control at 15.625 g/ha / pest or weed control at 250 g/ha: read-out: Morningglory, Ivy-leaved damage rating (100=total damage to plant; 0=no damage to plant); for pest or weed control at 62.5 g/ha: 62.5 g ai/ha, 100=total damage to plant, 0=no damage to plant, read-out: Morningglory, Ivy-leaved damage rating; for pest or weed control at 250 g/ha: 250 g ai/ha
Summary of the method: as §1

[5] = tested on: redroot pigweed (Amaranthus retroflexus); assay: Test G Pre-Emergence Protocol; settings: Amaranthus retroflexus, pre-emergence, 312 h, evaluated after 13 days; for pest or weed control at 15.625 g/ha: 15.625 g ai/ha; for pest or weed control at 15.625 g/ha / pest or weed control at 250 g/ha: read-out: Pigweed, Redroot damage rating (100=total damage to plant; 0=no damage to plant); for pest or weed control at 62.5 g/ha: 62.5 g ai/ha, 100=total damage to plant, 0=no damage to plant, read-out: Pigweed, Redroot damage rating; for pest or weed control at 250 g/ha: 250 g ai/ha
Summary of the method: as §1

[6] = tested on: velvetleaf (Abutilon theophrasti); assay: Test G Pre-Emergence Protocol; settings: Abutilon theophrasti, pre-emergence, 312 h, evaluated after 13 days; for pest or weed control at 15.625 g/ha: 15.625 g ai/ha; for pest or weed control at 15.625 g/ha / pest or weed control at 250 g/ha: read-out: Velvetleaf damage rating (100=total damage to plant; 0=no damage to plant); for pest or weed control at 62.5 g/ha: 62.5 g ai/ha, 100=total damage to plant, 0=no damage to plant, read-out: Velvetleaf damage rating; for pest or weed control at 250 g/ha: 250 g ai/ha
Summary of the method: as §1

[7] = tested on: barnyardgrass (Echinochloa crus-galli); assay: Test G Post-Emergence Protocol; settings: Echinochloa crus-galli, post-emergence, 312 h, read-out: Barnyardgrass damage rating; for pest or weed control at 15.625 g/ha: 15.625 g ai/ha, evaluated after 13 days (100=total damage to plant; 0=no damage to plant); for pest or weed control at 62.5 g/ha: 62.5 g ai/ha; for pest or weed control at 62.5 g/ha / pest or weed control at 250 g/ha: evaluated after 13 days, 100=total damage to plant, 0=no damage to plant; for pest or weed control at 250 g/ha: 250 g ai/ha
Summary of the method: (§2)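 Values are percent visual injury at 13 days after treatment (0 none, 100 total). Treatment was a post-emergence spray at 15.625, 62.5 or 250 g/ha on 8-day-old pot plants kept at 24/16 °C.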

corn (Zea mays) [8] = assay: Test G Post-Emergence Protocol; settings: Zea mays, post-emergence, 312 h, read-out: Corn damage rating; for plant injury at 15.625 g/ha: 15.625 g ai/ha, evaluated after 13 days (100=total damage to plant; 0=no damage to plant); for plant injury at 62.5 g/ha: 62.5 g ai/ha; for plant injury at 62.5 g/ha / plant injury at 250 g/ha: evaluated after 13 days, 100=total damage to plant, 0=no damage to plant; for plant injury at 250 g/ha: 250 g ai/ha
Summary of the method: as §2

[9] = tested on: giant foxtail (Setaria faberi); assay: Test G Post-Emergence Protocol; settings: Setaria faberi, post-emergence, 312 h, read-out: Foxtail, Giant damage rating; for pest or weed control at 15.625 g/ha: 15.625 g ai/ha, evaluated after 13 days (100=total damage to plant; 0=no damage to plant); for pest or weed control at 62.5 g/ha: 62.5 g ai/ha
Summary of the method: as §2

[10] = tested on: ivy-leaved morning glory (Ipomoea hederacea); assay: Test G Post-Emergence Protocol; settings: Ipomoea, post-emergence, 312 h, read-out: Morningglory, Ivy-leaved damage rating; for pest or weed control at 15.625 g/ha: 15.625 g ai/ha, evaluated after 13 days (100=total damage to plant; 0=no damage to plant); for pest or weed control at 62.5 g/ha: 62.5 g ai/ha; for pest or weed control at 62.5 g/ha / pest or weed control at 250 g/ha: evaluated after 13 days, 100=total damage to plant, 0=no damage to plant; for pest or weed control at 250 g/ha: 250 g ai/ha
Summary of the method: as §2

[11] = tested on: redroot pigweed (Amaranthus retroflexus); assay: Test G Post-Emergence Protocol; settings: Amaranthus retroflexus, post-emergence, 312 h, read-out: Pigweed, Redroot damage rating; for pest or weed control at 15.625 g/ha: 15.625 g ai/ha, evaluated after 13 days (100=total damage to plant; 0=no damage to plant); for pest or weed control at 62.5 g/ha: 62.5 g ai/ha; for pest or weed control at 62.5 g/ha / pest or weed control at 250 g/ha: evaluated after 13 days, 100=total damage to plant, 0=no damage to plant; for pest or weed control at 250 g/ha: 250 g ai/ha
Summary of the method: as §2

[12] = tested on: velvetleaf (Abutilon theophrasti); assay: Test G Post-Emergence Protocol; settings: Abutilon theophrasti, post-emergence, 312 h, read-out: Velvetleaf damage rating; for pest or weed control at 15.625 g/ha: 15.625 g ai/ha, evaluated after 13 days (100=total damage to plant; 0=no damage to plant); for pest or weed control at 62.5 g/ha: 62.5 g ai/ha; for pest or weed control at 62.5 g/ha / pest or weed control at 250 g/ha: evaluated after 13 days, 100=total damage to plant, 0=no damage to plant; for pest or weed control at 250 g/ha: 250 g ai/ha
Summary of the method: as §2

[13] = evaluated after 13 days, 100=total damage to plant, 0=no damage to plant

| Compound | pest or weed control at 15.625 g/ha [1] [%] | pest or weed control at 62.5 g/ha [1] [%] | pest or weed control at 250 g/ha [1] [%] | plant injury at 15.625 g/ha (corn (Zea mays) [2]) [%] | plant injury at 62.5 g/ha (corn (Zea mays) [2]) [%] | plant injury at 250 g/ha (corn (Zea mays) [2]) [%] | pest or weed control at 15.625 g/ha [3] [%] | pest or weed control at 62.5 g/ha [3] [%] | pest or weed control at 250 g/ha [3] [%] | pest or weed control at 15.625 g/ha [4] [%] | pest or weed control at 62.5 g/ha [4] [%] | pest or weed control at 250 g/ha [4] [%] | pest or weed control at 15.625 g/ha [5] [%] | pest or weed control at 62.5 g/ha [5] [%] | pest or weed control at 250 g/ha [5] [%] | pest or weed control at 15.625 g/ha [6] [%] | pest or weed control at 62.5 g/ha [6] [%] | pest or weed control at 250 g/ha [6] [%] | pest or weed control at 15.625 g/ha [7] [%] | pest or weed control at 62.5 g/ha [7] [%] | further results |
| --- | --- | --- | --- | --- | --- | --- | --- | --- | --- | --- | --- | --- | --- | --- | --- | --- | --- | --- | --- | --- | --- |
| CN1C[C@H](c2ccc(C(F)F)cc2)[C@@H](C(=O)Nc2cnccc2C(F)(F)F)C1=O (racemic) [Compound 1743] | 30 | 40 | 80 | 30 | 20 | 80 | 30 | 90 | 90 | 0 | 60 | 70 | 20 | 60 | 80 | 10 | 50 | 80 | 0 | 0 | pest or weed control at 250 g/ha [7]: 80%; plant injury at 15.625 g/ha (corn (Zea mays) [8]): 0%; plant injury at 62.5 g/ha (corn (Zea mays) [8]): 0%; plant injury at 250 g/ha (corn (Zea mays) [8]): 60%; pest or weed control at 15.625 g/ha [9]: 20%; pest or weed control at 62.5 g/ha [9, 13]: 70%; pest or weed control at 15.625 g/ha [10]: 0%; pest or weed control at 62.5 g/ha [10]: 0%; pest or weed control at 250 g/ha [10]: 30%; pest or weed control at 15.625 g/ha [11]: 0%; pest or weed control at 62.5 g/ha [11]: 0%; pest or weed control at 250 g/ha [11]: 50%; pest or weed control at 15.625 g/ha [12]: 0%; pest or weed control at 62.5 g/ha [12]: 0%; pest or weed control at 250 g/ha [12]: 50% |
| CN1C[C@H](c2cccc(C(F)(F)F)c2)[C@@H](C(=O)Nc2cnccc2S(C)(=O)=O)C1=O (racemic) [Compound 1747] | 0 | 0 | 80 | 0 | 0 | 0 | 0 | 10 | 70 | 0 | 0 | 0 | 0 | 10 | 10 | 0 | 0 | 0 | 0 | 60 | pest or weed control at 250 g/ha [7]: 80%; plant injury at 15.625 g/ha (corn (Zea mays) [8]): 0%; plant injury at 62.5 g/ha (corn (Zea mays) [8]): 0%; plant injury at 250 g/ha (corn (Zea mays) [8]): 30%; pest or weed control at 15.625 g/ha [9]: 10%; pest or weed control at 62.5 g/ha [9, 13]: 60%; pest or weed control at 250 g/ha ([9]; 250 g ai/ha, evaluated after 13 days, 100=total damage to plant, 0=no damage to plant): 80%; pest or weed control at 15.625 g/ha [10]: 0%; pest or weed control at 62.5 g/ha [10]: 20%; pest or weed control at 250 g/ha [10]: 50%; pest or weed control at 15.625 g/ha [11]: 10%; pest or weed control at 62.5 g/ha [11]: 20%; pest or weed control at 250 g/ha [11]: 20%; pest or weed control at 15.625 g/ha [12]: 0%; pest or weed control at 62.5 g/ha [12]: 0%; pest or weed control at 250 g/ha [12]: 10% |
